Measured values taken from ChEMBL document CHEMBL5096151, “Phytocannabinoid Pharmacology: Medicinal Properties of Cannabis sativa Constituents Aside from the "Big Two"” (J Nat Prod, 2021).
Values after ≈ are worked out from the molar mass of the structure shown.

Experiments:
[1] = target: T1, Transient receptor potential cation channel subfamily A member 1 (Homo sapiens, UniProt O75762); experiment: Agonist activity at TRPA1 (unknown origin) channel desensitization in presence of icilin
[2] = target: T2, Transient receptor potential cation channel subfamily V member 1 (Homo sapiens, UniProt Q8NER1); experiment: Agonist activity at ionomycin-stimulated TRPV1 (unknown origin) channel desensitization in presence of capsaicin
[3] = test system: Staphylococcus aureus; experiment: Antibacterial activity against methicillin-resistant Staphylococcus aureus; format: functional
[4] = target: T3, Transient receptor potential cation channel subfamily V member 3 (Homo sapiens, UniProt Q8NET8); experiment: Agonist activity at ionomycin-stimulated TRPV3 (unknown origin) activation
T3 sequence (Q8NET8 whole entry): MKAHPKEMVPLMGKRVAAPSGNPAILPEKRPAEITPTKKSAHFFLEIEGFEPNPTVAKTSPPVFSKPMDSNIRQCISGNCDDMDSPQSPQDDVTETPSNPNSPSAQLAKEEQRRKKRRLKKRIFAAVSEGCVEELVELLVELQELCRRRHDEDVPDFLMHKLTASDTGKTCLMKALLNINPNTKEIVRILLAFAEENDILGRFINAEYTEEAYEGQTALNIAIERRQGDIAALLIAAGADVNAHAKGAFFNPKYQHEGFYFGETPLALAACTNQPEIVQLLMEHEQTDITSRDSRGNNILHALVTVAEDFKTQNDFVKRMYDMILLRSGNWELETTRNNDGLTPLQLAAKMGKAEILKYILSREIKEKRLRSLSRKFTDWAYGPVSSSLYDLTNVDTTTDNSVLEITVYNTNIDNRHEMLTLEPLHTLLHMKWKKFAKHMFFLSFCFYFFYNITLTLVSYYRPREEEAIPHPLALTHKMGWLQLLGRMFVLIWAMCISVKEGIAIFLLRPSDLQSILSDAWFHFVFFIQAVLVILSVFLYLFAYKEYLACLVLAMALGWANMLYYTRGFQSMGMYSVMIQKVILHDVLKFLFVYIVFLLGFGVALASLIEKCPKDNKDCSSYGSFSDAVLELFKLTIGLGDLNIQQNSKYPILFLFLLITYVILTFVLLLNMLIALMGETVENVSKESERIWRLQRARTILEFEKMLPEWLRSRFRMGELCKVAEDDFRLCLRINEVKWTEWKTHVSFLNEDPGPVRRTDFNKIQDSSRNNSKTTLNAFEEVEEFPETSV

[5] = target: T4, Cytochrome P450 2B6 (Homo sapiens, UniProt P20813); experiment: Inhibition of recombinant human CYP2B6 using coumarin as substrate preincubated with NADPH for 20 mins and measured after 30 min by Lineweaver-burk plots analysis; format: ADME
T4 sequence (P20813 whole entry): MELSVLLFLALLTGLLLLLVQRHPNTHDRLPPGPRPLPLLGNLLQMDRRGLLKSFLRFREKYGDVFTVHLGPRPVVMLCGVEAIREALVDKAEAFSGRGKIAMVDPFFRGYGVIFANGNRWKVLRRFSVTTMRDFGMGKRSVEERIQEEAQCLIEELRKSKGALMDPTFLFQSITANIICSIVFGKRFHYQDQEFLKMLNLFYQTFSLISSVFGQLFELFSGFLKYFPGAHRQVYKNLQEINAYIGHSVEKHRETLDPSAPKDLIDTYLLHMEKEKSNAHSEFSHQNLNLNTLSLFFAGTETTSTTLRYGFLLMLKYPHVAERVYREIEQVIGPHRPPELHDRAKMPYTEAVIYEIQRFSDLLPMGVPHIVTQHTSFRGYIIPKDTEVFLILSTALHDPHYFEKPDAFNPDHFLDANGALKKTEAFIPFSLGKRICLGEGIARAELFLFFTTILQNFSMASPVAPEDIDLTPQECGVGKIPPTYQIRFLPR

[6] = target: T5, Cannabinoid receptor 1 (Homo sapiens, UniProt P21554); experiment: Binding affinity to CB1 (unknown origin) expressed in CHO -k1 cells assessed as inhibition constant; format: cell-based
[7] = target: T4, Cytochrome P450 2B6; experiment: Mixed inhibition of recombinant human CYP2B6 using coumarin as substrate preincubated with NADPH for 20 mins and measured after 30 min by Lineweaver-burk plots analysis; format: ADME
[8] = target: T6, Cytochrome P450 2A6 (Homo sapiens, UniProt P11509); experiment: Non competitive inhibition of recombinant human CYP2A6 using coumarin as substrate preincubated with NADPH for 20 mins and measured after 30 min by Lineweaver-burk plots analysis; format: ADME
[9] = target: T6, Cytochrome P450 2A6; experiment: Non competitive inhibition of recombinant human CYP2A6 using coumarin as substrate preincubated with NADPH for 20 mins and measured after 30 min; format: ADME
[10] = target: T7, Transient receptor potential cation channel subfamily V member 4 (Homo sapiens, UniProt Q9HBA0); experiment: Agonist activity at ionomycin-stimulated TRPV4 (unknown origin) activation
[11] = target: T8, Transient receptor potential cation channel subfamily V member 3 (Homo sapiens) (UniProt Q8NET8); experiment: Agonist activity at ionomycin-stimulated TRPV3 (unknown origin) activation assessed as efficacy relative to control
T8 sequence (whole entry): T3 sequence (Q8NET8 whole entry)

[12] = target: T7, Transient receptor potential cation channel subfamily V member 4; experiment: Agonist activity at ionomycin-stimulated TRPV4 (unknown origin) activation assessed as efficacy relative to control
[13] = target: T9, Transient receptor potential cation channel subfamily V member 2 (Homo sapiens, UniProt Q9Y5S1); experiment: Agonist activity at ionomycin-stimulated TRPV2 (unknown origin) activation
T9 sequence (Q9Y5S1 whole entry): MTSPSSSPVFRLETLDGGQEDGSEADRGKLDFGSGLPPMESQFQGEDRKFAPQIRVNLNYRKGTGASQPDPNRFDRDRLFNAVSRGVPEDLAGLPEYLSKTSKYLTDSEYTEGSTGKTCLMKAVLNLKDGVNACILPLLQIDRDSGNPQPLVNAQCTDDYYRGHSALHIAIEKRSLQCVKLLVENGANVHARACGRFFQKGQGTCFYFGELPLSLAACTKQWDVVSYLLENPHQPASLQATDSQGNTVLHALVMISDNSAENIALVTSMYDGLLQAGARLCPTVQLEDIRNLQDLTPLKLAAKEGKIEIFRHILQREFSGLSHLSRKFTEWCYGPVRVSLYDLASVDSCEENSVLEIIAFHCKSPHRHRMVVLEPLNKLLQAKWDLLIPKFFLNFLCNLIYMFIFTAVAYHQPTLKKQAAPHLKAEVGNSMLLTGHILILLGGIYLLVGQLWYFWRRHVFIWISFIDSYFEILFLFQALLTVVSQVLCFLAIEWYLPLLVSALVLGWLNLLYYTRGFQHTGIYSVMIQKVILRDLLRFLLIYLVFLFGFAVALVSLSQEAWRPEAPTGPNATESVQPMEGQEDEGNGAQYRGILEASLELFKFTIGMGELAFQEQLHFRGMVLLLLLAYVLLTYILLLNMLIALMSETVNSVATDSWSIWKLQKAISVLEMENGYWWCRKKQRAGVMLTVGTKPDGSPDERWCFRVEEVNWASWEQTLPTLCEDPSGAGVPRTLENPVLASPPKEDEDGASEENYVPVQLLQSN

[14] = target: T10, Transient receptor potential cation channel subfamily V member 2 (Homo sapiens) (UniProt Q9Y5S1); experiment: Agonist activity at ionomycin-stimulated TRPV2 (unknown origin) activation assessed as efficacy relative to control; settings: filed as agonist
T10 sequence (whole entry): T9 sequence (Q9Y5S1 whole entry)

[15] = target: T5, Cannabinoid receptor 1; experiment: Binding affinity to CB1 (unknown origin) assessed as inhibition constant
[16] = target: T2, Transient receptor potential cation channel subfamily V member 1; experiment: Agonist activity at ionomycin-stimulated TRPV1 (unknown origin) activation assessed as efficacy relative to control
[17] = target: T11, Cannabinoid receptor 2 (Homo sapiens, UniProt P34972); experiment: Binding affinity to CB2 receptor (unknown origin) expressed in CHO -k1 cells assessed as inhibition constant; format: cell-based
[18] = target: T9, Transient receptor potential cation channel subfamily V member 2; experiment: Agonist activity at ionomycin-stimulated TRPV2 (unknown origin) channel desensitization in presence of lysophosphatidylcholine
[19] = target: Cytochrome P450 2J2 (Homo sapiens, UniProt P51589); experiment: Non competitive inhibition of CYP2J2 (unknown origin) in presence of NADPH by LC-MS/MS analysis; format: ADME
[20] = target: T7, Transient receptor potential cation channel subfamily V member 4; experiment: Agonist activity at ionomycin-stimulated TRPV4 (unknown origin) channel desensitization in presence of 4alphaPDD
[21] = target: T1, Transient receptor potential cation channel subfamily A member 1; experiment: Agonist activity at TRPA1 (unknown origin) channel desensitization in presence of isothiocyanate
[22] = test system: HT-22; experiment: Neuroprotection against glutamate-induced oxytosis in mouse HT-22 cells assessed as cell viability; format: functional, cell-based
[23] = target: T1, Transient receptor potential cation channel subfamily A member 1; experiment: Agonist activity at TRPA1 (unknown origin) activation
[24] = target: T11, Cannabinoid receptor 2; experiment: Binding affinity to CB2 receptor (unknown origin) expressed in AtT20 cells assessed as inhibition constant; format: cell-based
[25] = target: T3, Transient receptor potential cation channel subfamily V member 3; experiment: Agonist activity at ionomycin-stimulated TRPV3 (unknown origin) channel desensitization in presence of carvacrol
[26] = target: T1, Transient receptor potential cation channel subfamily A member 1; experiment: Agonist activity at TRPA1 (unknown origin) activation assessed as efficacy relative to control; settings: filed as agonist
[27] = target: Alpha-2A adrenergic receptor (Homo sapiens) (UniProt P08913); experiment: Displacement of [35S]GTPgammaS from human alpha2-adreno receptor receptor expressed in CHO cells; format: cell-based
[28] = test system: Escherichia coli; experiment: […] activity against Escherichia coli in presence of polymyxin; format: functional
[29] = test system: Staphylococcus aureus; experiment: Antibacterial activity against methicillin-resistant Staphylococcus aureus USA300 infected in mouse assessed as log10 reduction in bacterial load in spleen at 100 mg/kg ,ip measured for 30 mins; format: functional; settings: 0.5 h
[30] = Agonist activity at CB2 receptor in albino MF1 mouse vas deferens assessed as inhibition of electrically evoked vas deferens contraction by incubated for 13 mins followed by electrical stimulation for 2 mins
[31] = target: T5, Cannabinoid receptor 1; experiment: Displacement of [35S]GTPgammaS from human CB1 receptor expressed in CHO cells; format: cell-based
[32] = target: Cannabinoid receptor 1 (Rattus norvegicus, UniProt P20272); experiment: Displacement of [35S]GTPgammaS from CB1 receptor in rat brain; format: tissue-based
[33] = test system: Staphylococcus aureus; experiment: Antibiofilm activity against methicillin-resistant Staphylococcus aureus USA300 incubated for 24 hrs by CLSI based assay; format: functional
[34] = target: T5, Cannabinoid receptor 1; experiment: Displacement of [3H]-WIN55212-2 from human CB1 receptor transfected in CHO cell membrane incubated for 90 mins by Liquid scintillation counter analysis; format: cell membranes
[35] = target: Cannabinoid receptor 1 (Mus musculus) (UniProt P47746); experiment: Agonist activity at CB1 receptor in albino MF1 mouse vas deferens assessed as inhibition of electrically evoked vas deferens contraction by incubated for 13 mins followed by electrical stimulation for 2 mins; format: functional; settings: filed as antagonist, time 15.0 min
[36] = test system: Staphylococcus aureus; experiment: Antibiofilm activity against methicillin-resistant Staphylococcus aureus USA300 incubated for 24 hrs by crystal violet staining based assay; format: functional
[37] = target: T5, Cannabinoid receptor 1; experiment: Binding affinity to CB1 (unknown origin) receptor assessed as inhibition constant
[38] = target: T11, Cannabinoid receptor 2; experiment: Binding affinity to human CB2 receptor assessed as inhibition constant

T7 sequence (Q9HBA0 whole entry): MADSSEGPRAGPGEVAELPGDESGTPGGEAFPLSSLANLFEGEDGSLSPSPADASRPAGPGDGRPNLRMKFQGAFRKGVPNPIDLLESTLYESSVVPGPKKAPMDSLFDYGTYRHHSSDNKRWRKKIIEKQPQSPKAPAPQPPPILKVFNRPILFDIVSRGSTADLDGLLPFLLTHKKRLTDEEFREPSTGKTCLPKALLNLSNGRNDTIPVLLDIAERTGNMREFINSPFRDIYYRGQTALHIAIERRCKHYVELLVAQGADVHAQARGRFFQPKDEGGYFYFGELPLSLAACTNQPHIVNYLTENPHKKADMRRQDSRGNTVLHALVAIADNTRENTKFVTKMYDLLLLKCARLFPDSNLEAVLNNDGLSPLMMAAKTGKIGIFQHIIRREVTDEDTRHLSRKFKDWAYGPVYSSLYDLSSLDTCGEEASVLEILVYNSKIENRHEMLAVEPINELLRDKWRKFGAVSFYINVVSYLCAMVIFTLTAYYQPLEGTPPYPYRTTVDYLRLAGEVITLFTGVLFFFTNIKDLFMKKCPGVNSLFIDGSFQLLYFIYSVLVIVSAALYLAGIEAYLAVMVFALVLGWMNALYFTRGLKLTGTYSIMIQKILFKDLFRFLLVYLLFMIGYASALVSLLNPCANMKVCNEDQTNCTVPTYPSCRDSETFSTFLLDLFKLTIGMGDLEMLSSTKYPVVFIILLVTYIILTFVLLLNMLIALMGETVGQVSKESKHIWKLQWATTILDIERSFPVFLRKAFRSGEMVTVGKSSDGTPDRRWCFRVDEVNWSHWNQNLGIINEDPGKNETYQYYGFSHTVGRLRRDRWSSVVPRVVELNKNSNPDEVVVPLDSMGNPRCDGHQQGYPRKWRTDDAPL
T11 sequence (P34972 whole entry): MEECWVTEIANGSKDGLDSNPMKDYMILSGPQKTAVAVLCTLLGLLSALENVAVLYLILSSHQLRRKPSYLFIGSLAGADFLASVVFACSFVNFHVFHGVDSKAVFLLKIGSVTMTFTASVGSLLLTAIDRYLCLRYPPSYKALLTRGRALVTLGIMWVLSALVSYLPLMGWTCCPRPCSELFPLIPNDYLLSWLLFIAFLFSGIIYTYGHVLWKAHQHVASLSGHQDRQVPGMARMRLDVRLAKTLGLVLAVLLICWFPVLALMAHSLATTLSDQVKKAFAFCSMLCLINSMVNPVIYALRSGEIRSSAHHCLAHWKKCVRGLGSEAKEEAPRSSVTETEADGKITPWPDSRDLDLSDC
T2 sequence (Q8NER1 whole entry): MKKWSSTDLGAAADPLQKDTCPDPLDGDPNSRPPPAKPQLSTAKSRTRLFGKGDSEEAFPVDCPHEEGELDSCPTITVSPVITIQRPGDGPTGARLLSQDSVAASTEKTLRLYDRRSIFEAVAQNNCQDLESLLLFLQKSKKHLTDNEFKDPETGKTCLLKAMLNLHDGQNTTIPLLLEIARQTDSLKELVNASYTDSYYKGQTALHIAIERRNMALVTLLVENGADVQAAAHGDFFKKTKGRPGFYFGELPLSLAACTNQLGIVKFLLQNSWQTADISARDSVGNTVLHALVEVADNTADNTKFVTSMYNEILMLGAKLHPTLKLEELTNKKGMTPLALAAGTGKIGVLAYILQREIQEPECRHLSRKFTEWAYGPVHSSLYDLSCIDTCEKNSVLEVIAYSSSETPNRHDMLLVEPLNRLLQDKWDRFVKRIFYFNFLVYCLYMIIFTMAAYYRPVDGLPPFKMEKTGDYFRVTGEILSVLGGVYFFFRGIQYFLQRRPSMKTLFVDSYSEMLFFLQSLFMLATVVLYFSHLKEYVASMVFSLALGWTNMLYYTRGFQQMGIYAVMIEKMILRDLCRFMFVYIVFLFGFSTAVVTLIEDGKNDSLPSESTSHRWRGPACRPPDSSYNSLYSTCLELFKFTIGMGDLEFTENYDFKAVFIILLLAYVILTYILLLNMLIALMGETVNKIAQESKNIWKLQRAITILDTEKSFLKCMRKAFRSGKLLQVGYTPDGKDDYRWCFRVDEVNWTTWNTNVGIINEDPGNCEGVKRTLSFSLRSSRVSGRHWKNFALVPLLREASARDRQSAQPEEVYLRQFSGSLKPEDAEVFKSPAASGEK
T1 sequence (O75762 whole entry): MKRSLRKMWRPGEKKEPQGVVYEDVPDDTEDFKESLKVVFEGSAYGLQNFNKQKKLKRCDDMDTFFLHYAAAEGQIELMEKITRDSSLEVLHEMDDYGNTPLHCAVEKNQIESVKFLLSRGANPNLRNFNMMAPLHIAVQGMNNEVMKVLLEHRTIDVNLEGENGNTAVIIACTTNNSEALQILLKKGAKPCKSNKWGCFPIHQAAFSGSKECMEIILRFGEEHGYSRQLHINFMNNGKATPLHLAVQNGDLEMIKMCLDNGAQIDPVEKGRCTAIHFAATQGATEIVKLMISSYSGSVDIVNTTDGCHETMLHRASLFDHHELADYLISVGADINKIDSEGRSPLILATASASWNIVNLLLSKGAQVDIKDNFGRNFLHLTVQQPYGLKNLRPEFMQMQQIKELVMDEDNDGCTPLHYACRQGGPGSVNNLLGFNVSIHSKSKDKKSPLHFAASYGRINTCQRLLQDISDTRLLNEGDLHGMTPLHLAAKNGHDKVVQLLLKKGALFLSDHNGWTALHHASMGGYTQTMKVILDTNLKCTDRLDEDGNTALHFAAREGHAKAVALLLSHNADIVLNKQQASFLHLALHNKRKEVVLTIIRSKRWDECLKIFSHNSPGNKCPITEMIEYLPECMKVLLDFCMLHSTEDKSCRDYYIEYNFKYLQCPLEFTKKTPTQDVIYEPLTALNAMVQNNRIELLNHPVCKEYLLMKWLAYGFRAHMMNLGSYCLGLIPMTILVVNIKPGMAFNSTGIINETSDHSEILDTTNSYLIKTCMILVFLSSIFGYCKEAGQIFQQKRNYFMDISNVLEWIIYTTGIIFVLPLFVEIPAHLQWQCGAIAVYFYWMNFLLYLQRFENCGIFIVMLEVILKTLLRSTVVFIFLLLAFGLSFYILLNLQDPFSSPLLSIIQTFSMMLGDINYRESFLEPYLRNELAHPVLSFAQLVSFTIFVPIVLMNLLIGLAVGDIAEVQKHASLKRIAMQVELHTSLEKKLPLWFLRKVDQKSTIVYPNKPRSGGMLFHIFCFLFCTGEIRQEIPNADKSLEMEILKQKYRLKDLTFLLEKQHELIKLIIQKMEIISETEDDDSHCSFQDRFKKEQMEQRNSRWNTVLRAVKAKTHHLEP
T5 sequence (P21554 whole entry): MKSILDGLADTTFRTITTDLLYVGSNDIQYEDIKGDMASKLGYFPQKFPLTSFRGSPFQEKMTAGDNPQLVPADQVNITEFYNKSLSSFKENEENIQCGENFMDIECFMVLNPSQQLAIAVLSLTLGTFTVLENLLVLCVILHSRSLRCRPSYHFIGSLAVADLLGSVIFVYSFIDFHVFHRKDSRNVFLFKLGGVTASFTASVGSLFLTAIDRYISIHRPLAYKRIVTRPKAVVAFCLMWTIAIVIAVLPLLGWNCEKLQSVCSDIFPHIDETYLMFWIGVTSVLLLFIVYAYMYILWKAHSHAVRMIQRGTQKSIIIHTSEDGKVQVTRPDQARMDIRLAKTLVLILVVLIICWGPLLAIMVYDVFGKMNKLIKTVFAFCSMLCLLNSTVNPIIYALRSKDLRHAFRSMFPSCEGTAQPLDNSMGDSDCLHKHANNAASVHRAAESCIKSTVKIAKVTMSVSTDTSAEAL
T6 sequence (P11509 whole entry): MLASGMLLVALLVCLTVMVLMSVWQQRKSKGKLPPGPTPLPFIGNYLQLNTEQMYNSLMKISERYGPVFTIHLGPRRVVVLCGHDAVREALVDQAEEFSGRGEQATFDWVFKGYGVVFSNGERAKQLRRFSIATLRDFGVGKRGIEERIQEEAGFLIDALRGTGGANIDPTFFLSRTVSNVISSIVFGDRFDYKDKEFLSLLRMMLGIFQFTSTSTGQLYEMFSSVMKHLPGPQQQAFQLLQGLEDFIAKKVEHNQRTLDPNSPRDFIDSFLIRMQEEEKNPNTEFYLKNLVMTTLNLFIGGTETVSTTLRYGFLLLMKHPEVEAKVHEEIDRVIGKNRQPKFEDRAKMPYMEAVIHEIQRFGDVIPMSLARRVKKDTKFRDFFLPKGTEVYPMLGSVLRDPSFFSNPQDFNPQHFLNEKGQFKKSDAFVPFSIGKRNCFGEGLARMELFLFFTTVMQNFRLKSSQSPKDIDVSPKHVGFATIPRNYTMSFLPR
Chain of Alpha-2A adrenergic receptor (Homo sapiens) (P08913 whole entry): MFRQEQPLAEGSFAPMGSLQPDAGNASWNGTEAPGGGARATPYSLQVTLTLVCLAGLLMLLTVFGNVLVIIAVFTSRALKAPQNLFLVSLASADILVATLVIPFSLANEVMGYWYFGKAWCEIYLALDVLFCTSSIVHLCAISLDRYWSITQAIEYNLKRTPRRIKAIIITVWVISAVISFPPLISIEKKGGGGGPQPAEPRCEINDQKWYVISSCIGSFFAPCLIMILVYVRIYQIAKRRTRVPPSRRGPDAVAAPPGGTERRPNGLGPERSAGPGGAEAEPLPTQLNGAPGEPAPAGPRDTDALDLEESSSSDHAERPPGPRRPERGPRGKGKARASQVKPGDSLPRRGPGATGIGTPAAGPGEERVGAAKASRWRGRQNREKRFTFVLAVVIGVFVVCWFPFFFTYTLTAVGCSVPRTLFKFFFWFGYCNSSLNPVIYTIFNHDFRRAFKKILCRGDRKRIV

CCCCCc1cc(O)c2c(c1)OC(C)(C)c1ccc(C)cc1-2 [CANNABINOL]
IC50 [1]: 210 nM | IC50 [2]: 82000 nM | MIC [3]: 1 µg/mL (≈ 3.22 µM) | EC50 [4]: 5300 nM | Ki [5]: 2550 nM | Ki [6]: 70 nM | Ki [7]: 39000 nM | Ki [8]: 1000 nM | IC50 [9]: 30400 nM | EC50 [10]: 16100 nM | Efficacy ([11]; filed as agonist): 72% | Efficacy ([12]; filed as agonist): 60% | EC50 [13]: 19000 nM | Efficacy [14]: 74% | Ki [15]: 1100 nM | Efficacy [16]: < 10% | Ki [17]: 70 nM | IC50 [18]: 15700 nM | IC50 [19]: 19000 nM | IC50 [20]: 5400 nM | IC50 [21]: 400 nM | EC50 [22]: 610 nM | EC50 [23]: 180 nM | Ki [24]: 300 nM | IC50 [25]: 9400 nM | Efficacy [26]: 243%

CCCCCc1cc(O)c(C/C=C(\C)CCC=C(C)C)c(O)c1 [CANNABIGEROL]
EC5 [27]: 0.002 µM | EC50 [4]: 1000 nM | MIC [28]: 4 µg/mL | log(activity) [29]: 2.8 | EC50 [10]: 5100 nM | Efficacy [11]: 18% | Efficacy [12]: 24% | EC50 [13]: 1700 nM | Ki [30]: 1100 nM | Ki [31]: 2600 nM | Efficacy [14]: 74% | Efficacy [16]: 34% | Ki [32]: 440 nM | MIC90 [33]: 4 µg/mL (≈ 12.6 µM) | IC50 [18]: 1500 nM | K [34]: 1.04 µM | IC50 [20]: 1300 nM | K [35]: 0.38 µM | IC50 [21]: 13000 nM | MIC [36]: 0.5 µg/mL (≈ 1.58 µM) | MIC90 [36]: 4 µg/mL (≈ 12.6 µM) | EC50 [23]: 700 nM | IC50 [25]: 66000 nM | Efficacy [26]: 100%

CCCCCCCc1cc(O)c2c(c1)OC(C)(C)[C@@H]1CCC(C)=C[C@@H]21
Ki [37]: 130 nM | Ki [38]: 6.9 nM
